According to patent US20190300845A1, “SEQUENTIAL ADDITION OF MOLECULAR GERMINANTS TO BACTERIAL SPORES” (NOVOZYMES BIOAG A/S, priority 2016, published 2019):

What was measured:
[1] = test system: Bacillus subtilis strain SB3086 spores; test: Sequential germinant addition, germination by dipicolinic acid (DPA) release (Tb-DPA fluorescence); format: cell-based
Description: Bacterial spores from Bacillus subtilis strain SB3086 were prepared as described in the first paragraph of Example 1. The spore preparations were washed in sterile 4° C. water by centrifugation (10,000×g, 1 minute), aspirating the supernatant from the pellet, and suspending the spore pellet in water. This was performed three consecutive times. Optical densities of washed spore preparations were measured in sterile water at 4° C. using a Synergy H4 Multi-Mode Reader (Bio-Tek). The spore preparations were set to 5 OD600 units per ml. By phase-contrast microscopy, 99% of the particles in the samples appeared to be ungerminated spores.
The spores were then treated with 1 mM of L-alanine for 24 hours at 4° C. […] In one experiment, spores that had been treated with 1 mM L-alanine for 24 hours were washed in water to remove the L-alanine. Negative controls were not treated with L-alanine. Spores to be used as positive controls were boiled for 2 hours to release dipicolinic acid (see below).
(§1) Germination of spores in these studies was determined by measuring dipicolinic acid (DPA). DPA is about 10% of the mass of endospores, which is generally released when germination occurs. Boiling spores generally releases all of the DPA (used as a positive control). DPA release was detected using terbium chloride (TbCl3), as described below.
(§2) To perform the germination assays, 30 μl of spores were added to wells of a 96-well flat-bottom microtiter plate. Subsequently, 35 μl of a 250 μM TbCl3 stock was added. At time 0, 85 μl of a D-fructose solution was added, to give a final concentration of 10 mM D-fructose. The solution was mixed by pipetting, the microtiter plate was placed into a plate reader (Synergy H4 Multi-Mode Reader, Bio-Tek), and the sample wells were measured for presence of a fluorescent Tb-DPA product over time. Tb-DPA is excited at 270 nm and emits at 545 nm. All experimental samples were tested in triplicate. Baseline controls for each sample were generated by omitting L-alanine and these were performed in duplicate. All sample wells were measured immediately after D-fructose was added (time 0) and then over time. For each time point, the data were normalized to values for the spores that had been boiled for two hours to force 100% release of DPA from the spores.

[2] = test system: Bacillus pumilus strain SB3189 spores; test: as above; format: cell-based
Description: as §1, §2
The experiment was generally performed as described in Example 3. SB3189 spores were treated with various concentrations of L-alanine (0.0 mM, 0.5 mM, 1.0 mM, 2.0 mM, 3.0 mM, 4.0 mM, 5.0 mM, 6.0 mM, 7.0 mM, 8.0 mM, 9.0 mM, or 10.0 mM) for 24 hours at 4° C. […] D-fructose (10 mM) was then added to the L-alanine-treated spores (this was time 0) and DPA levels were measured over time.

[3] = test system: spores from Bacillus pumilus strain SB3189; test: Germinant testing by decrease in relative OD580; format: cell-based; details: substance alone, at a concentration of 3 mM
[4] = test system: Bacillus megaterium strain SB3112 spores; test: KBr pretreatment, germination by dipicolinic acid (DPA) release (Tlag, Gmax); format: cell-based
Description: as §1, §2
These studies were generally performed as described in Example 3. SB3112 spores, heat-activated or not heat-activated (not heat-activated are called “native”), were treated with 0.5, 3.0, or 10.0 mM KBr overnight at either 4° or 22° C. […] The time at which the subsequent addition was made to the spores was considered time 0. DPA concentration was measured over time.
To facilitate comparison of the different samples, values for Tlag and Gmax were calculated for each spore treatment. Tlag is the time after exposure to germinants that a population of spores begins to rapidly release DPA into the environment. Tlag indicates, in part, how rapidly a population of spores responds to germinants. Gmax is the maximum percentage of DPA that a sample releases during an experiment, divided by the DPA released by the sample when boiled. Gmax is proportional to the percentage of spores in a population that germinates.

[5] = test system: spores from Bacillus amyloliquefaciens strain SB3615; test: Germinant testing by decrease in relative OD580
[6] = test system: spores from Bacillus megaterium strain SB3112; test: Germinant testing by decrease in relative OD580; format: cell-based; details: amino acid along with KBr and D-glucose; each 3 mM

O=C(CO)[C@@H](O)[C@H](O)[C@H](O)CO [D-fructose]
Germination (DPA release) with D-fructose ([1]; 10 mM D-fructose, spores not treated with L-alanine): did not germinate | Germination (DPA release) in presence of D-fructose ([2]; 10 mM D-fructose, spores not treated with L-alanine (0 mM)): did not germinate | Germination of spores (decrease in relative OD580) [3]: None

[Br-].[K+] [KBr]
Gmax ([4]; heat-activated spores, 0.5 mM KBr overnight at 4° C. before full germinant solution): 92% | Gmax ([4]; heat-activated spores, 0.5 mM KBr overnight at 22° C. before full germinant solution): 65% | Gmax ([4]; heat-activated spores, 3.0 mM KBr overnight at 4° C. before full germinant solution): 123% | Gmax ([4]; heat-activated spores, 3.0 mM KBr overnight at 22° C. before full germinant solution): 65% | Gmax ([4]; heat-activated spores, 10.0 mM KBr overnight at 4° C. before full germinant solution): 85% | Gmax ([4]; heat-activated spores, 10.0 mM KBr overnight at 22° C. before full germinant solution): 61% | Gmax as compared to spores not pretreated with KBr ([4]; heat-treated spores, at 22° C., 0.5, 3.0, or 10.0 mM KBr): decreased | Percentage of spores that germinated (Gmax) as compared to spores not pretreated with KBr ([4]; native or heat-treated spores, at 4° C., 3.0 or 10.0 mM KBr): increased | Gmax ([4]; native spores, 0.5 mM KBr overnight at 4° C. before full germinant solution): 24% | Gmax ([4]; native spores, 0.5 mM KBr overnight at 22° C. before full germinant solution): 62% | Gmax ([4]; native spores, 3.0 mM KBr overnight at 4° C. before full germinant solution): 31% | Gmax ([4]; native spores, 3.0 mM KBr overnight at 22° C. before full germinant solution): 96% | Gmax ([4]; native spores, 10.0 mM KBr overnight at 4° C. before full germinant solution): 29% | Gmax ([4]; native spores, 10.0 mM KBr overnight at 22° C. before full germinant solution): 103% | Tlag as compared to spores not pretreated with KBr ([4]; some samples: 4° C. native spores 3.0 or 10.0 mM KBr, 22° C. heat-activated spores 0.5 mM KBr): different

C[C@H](N)C(=O)O [L-alanine]
Molecules causing germination ([5]; strain SB3615, each substance 3 mM): L-alanine | Germination of spores (decrease in relative OD580) ([5]; substance alone, 3 mM, heat-activated spores, 37° C., 70 minutes): could cause germination | Germination as a result of the L-alanine treatment, determined by microscopy ([1]; 1 mM L-alanine for 24 hours at 4° C., before D-fructose): No germination | Germination (DPA release) when D-fructose was added ([1]; L-alanine 24 hours, washed out prior to addition of D-fructose): did not germinate | Germination (DPA release) when D-fructose was added ([1]; spores treated with 1 mM L-alanine for 24 hours, then 10 mM D-fructose): germinated | Germination due to the L-alanine treatment, determined by microscopy ([2]; 0.5-10.0 mM L-alanine for 24 hours at 4° C., before D-fructose): no germination | Extent of germination versus amount of L-alanine ([2]; 0.5 to 10 mM L-alanine pretreatment, then 10 mM D-fructose): increased as the amount of L-alanine increased | Germination (DPA release) on addition of D-fructose ([2]; spores treated with L-alanine 24 hours, then D-fructose (10 mM) at time 0): caused germination | Germination of spores (decrease in relative OD580) [3]: None | Germination of spores (decrease in relative OD580) [6]: caused germination of the spores

N[C@@H](CS)C(=O)O [L-cysteine]
Germination of spores (decrease in relative OD580) [3]: None

N[C@@H](Cc1c[nH]cn1)C(=O)O [L-histidine]
Germination of spores (decrease in relative OD580) [6]: caused germination of the spores

CC[C@H](C)[C@H](N)C(=O)O [L-isoleucine]
Germination of spores (decrease in relative OD580) [6]: caused germination of the spores

CC(C)C[C@H](N)C(=O)O [L-leucine]
Germination of spores (decrease in relative OD580) [6]: caused germination of the spores

N[C@@H](Cc1ccccc1)C(=O)O [L-phenylalanine]
Germination of spores (decrease in relative OD580) [6]: caused germination of the spores

O=C(O)[C@@H]1CCCN1 [L-proline]
Germination of spores (decrease in relative OD580) [6]: caused germination of the spores

OC[C@H]1O[C@@](CO)(O[C@H]2O[C@H](CO)[C@@H](O)[C@H](O)[C@H]2O)[C@@H](O)[C@@H]1O [sucrose]
Germination of spores (decrease in relative OD580) [3]: None
